Results published in ChEMBL document CHEMBL1201862, “PubChem BioAssay data set” (2004).
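Each compound was tested at five concentrations against cells in 96-well plates for 48 hours. GI50 marks 50% less growth.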 Activity calls are given as the source filed them. Rule as the data show it: active = GI50 up to about 1.1 µM and inactive = higher.

Assays:
Test in all cases: growth of human tumour cells (NCI), 48 h
HCT-15 = tested on: HCT-15
TK-10 = tested on: TK-10
U-251 = tested on: U-251
HOP-62 = tested on: HOP-62
SK-MEL-5 = tested on: SK-MEL-5
MOLT-4 = tested on: MOLT-4
SNB-75 = tested on: SNB-75
UACC-62 = tested on: UACC-62
OVCAR-5 = tested on: OVCAR-5
SF-539 = tested on: SF-539
A549 = tested on: A549
IGROV-1 = tested on: IGROV-1
ACHN = tested on: ACHN
RPMI-8226 = tested on: RPMI-8226
NCI-H226 = tested on: NCI-H226
Malme-3M = tested on: Malme-3M
SR = tested on: SR
CAKI-1 = tested on: CAKI-1

Row | SMILES | GI50 (HCT-15) [µM] | GI50 (TK-10) | GI50 (U-251) | GI50 (HOP-62) | GI50 (SK-MEL-5) | GI50 (MOLT-4) | GI50 (SNB-75) | GI50 (UACC-62) | GI50 (OVCAR-5) | GI50 (SF-539) | GI50 (A549) | GI50 (IGROV-1) | GI50 (ACHN) | GI50 (RPMI-8226) | GI50 (NCI-H226) | GI50 (Malme-3M) | GI50 (SR) | GI50 (CAKI-1)
1 | N#CC(C(=N/O)/C(=N\O)C(C#N)c1ccccc1)c1ccccc1 (stereo not drawn) | > 100 | > 100 µM (inactive) | > 100 µM (inactive) | > 100 µM (inactive) | > 100 µM (inactive) | > 100 µM (inactive) | > 100 µM (inactive) | > 100 µM (inactive) | > 100 µM (inactive) | > 100 µM (inactive) | > 100 µM (inactive) | > 100 µM (inactive) | > 100 µM (inactive) | > 100 µM (inactive) | > 100 µM (inactive) | > 100 µM (inactive) | – | –
2 | CS(=O)(=O)NNS(=O)(=O)c1ccccc1 | > 100 | > 100 µM (inactive) | > 100 µM (inactive) | > 100 µM (inactive) | > 100 µM (inactive) | > 100 µM (inactive) | > 100 µM (inactive) | > 100 µM (inactive) | – | > 100 µM (inactive) | > 100 µM (inactive) | > 100 µM (inactive) | > 100 µM (inactive) | > 100 µM (inactive) | > 100 µM (inactive) | > 100 µM (inactive) | > 100 µM (inactive) | > 100 µM (inactive)
3 | O=C(O)/C=C/c1ccc(O)c(O)c1 [CAFFEIC ACID] | > 100 | > 100 µM (inactive) | > 100 µM (inactive) | > 100 µM (inactive) | > 100 µM (inactive) | > 100 µM (inactive) | > 24 µM (inactive) | > 100 µM (inactive) | > 100 µM (inactive) | > 100 µM (inactive) | > 100 µM (inactive) | > 100 µM (inactive) | > 100 µM (inactive) | > 100 µM (inactive) | > 100 µM (inactive) | > 100 µM (inactive) | – | > 100 µM (inactive)
4 | COc1ccc2cc3n(c2c1)CCc1cc(OC)c(OC)cc1-3 | – | > 100 µM (inactive) | 77.1 µM (inactive) | > 100 µM (inactive) | – | > 100 µM (inactive) | – | 71.8 µM (inactive) | – | > 100 µM (inactive) | > 100 µM (inactive) | > 100 µM (inactive) | > 100 µM (inactive) | – | > 100 µM (inactive) | – | – | > 100 µM (inactive)
5 | Cc1cc2c(C=O)n[nH]c2c(C#N)c1C | 32.4 | > 100 µM (inactive) | 60.3 µM (inactive) | > 100 µM (inactive) | 32.6 µM (inactive) | > 100 µM (inactive) | 7.43 µM (inactive) | 43.3 µM (inactive) | > 100 µM (inactive) | 27.7 µM (inactive) | > 100 µM (inactive) | 67 µM (inactive) | 63.5 µM (inactive) | > 100 µM (inactive) | – | > 100 µM (inactive) | – | –
6 | c1ccc2c(OCCSCCCCCCCCCCSCCOc3cccc4ccccc34)cccc2c1 | > 100 | > 100 µM (inactive) | > 100 µM (inactive) | > 100 µM (inactive) | > 100 µM (inactive) | > 100 µM (inactive) | > 100 µM (inactive) | > 100 µM (inactive) | > 100 µM (inactive) | > 100 µM (inactive) | > 100 µM (inactive) | > 100 µM (inactive) | > 100 µM (inactive) | > 100 µM (inactive) | > 100 µM (inactive) | > 100 µM (inactive) | – | > 100 µM (inactive)
7 | [N-]=[N+]=NCC(O)Cn1cnc2c(NC(=O)c3ccccc3)ncnc21 (stereo not drawn) | > 100 | > 100 µM (inactive) | > 100 µM (inactive) | > 100 µM (inactive) | > 100 µM (inactive) | > 100 µM (inactive) | > 100 µM (inactive) | > 100 µM (inactive) | > 100 µM (inactive) | > 100 µM (inactive) | > 100 µM (inactive) | > 100 µM (inactive) | > 100 µM (inactive) | > 100 µM (inactive) | > 100 µM (inactive) | > 100 µM (inactive) | – | > 100 µM (inactive)
8 | O=C(CC(=O)c1cccc([N+](=O)[O-])c1)C(=O)Nc1ccccc1 | > 100 | > 100 µM (inactive) | > 100 µM (inactive) | > 100 µM (inactive) | > 100 µM (inactive) | > 100 µM (inactive) | > 100 µM (inactive) | > 100 µM (inactive) | > 100 µM (inactive) | > 100 µM (inactive) | > 100 µM (inactive) | > 100 µM (inactive) | > 100 µM (inactive) | > 100 µM (inactive) | > 100 µM (inactive) | > 100 µM (inactive) | – | > 100 µM (inactive)
9 | CCOC(=O)COc1cccc2c1C(=O)CCO2 | > 100 | > 100 µM (inactive) | > 100 µM (inactive) | > 100 µM (inactive) | > 100 µM (inactive) | > 100 µM (inactive) | – | > 100 µM (inactive) | > 100 µM (inactive) | > 100 µM (inactive) | > 100 µM (inactive) | > 100 µM (inactive) | > 100 µM (inactive) | > 100 µM (inactive) | – | > 100 µM (inactive) | – | > 100 µM (inactive)
10 | CCCCNS(=O)(=O)c1ccc(-c2ccc3c(c2)-c2ccc(S(=O)(=O)NCCCC)cc2S3(=O)=O)cc1 | 72.8 | 28.8 µM (inactive) | 23 µM (inactive) | 14.9 µM (inactive) | 2.18 µM (inactive) | > 100 µM (inactive) | – | 13.2 µM (inactive) | > 100 µM (inactive) | 12.1 µM (inactive) | 14 µM (inactive) | 32.8 µM (inactive) | 21.6 µM (inactive) | 27.9 µM (inactive) | 12.6 µM (inactive) | 14.9 µM (inactive) | 72.1 µM (inactive) | –
11 | Nc1ncnc2c1ncn2C1OC(CSC(F)(F)F)C(O)C1O (stereo not drawn) | > 100 | > 100 µM (inactive) | > 100 µM (inactive) | > 100 µM (inactive) | > 100 µM (inactive) | > 100 µM (inactive) | > 100 µM (inactive) | > 100 µM (inactive) | > 100 µM (inactive) | > 100 µM (inactive) | > 100 µM (inactive) | > 100 µM (inactive) | > 100 µM (inactive) | > 100 µM (inactive) | > 100 µM (inactive) | > 100 µM (inactive) | – | > 100 µM (inactive)
12 | CN[C@@H](C)[C@@H](N)c1ccccc1 | > 100 | > 100 µM (inactive) | > 100 µM (inactive) | – | > 100 µM (inactive) | > 100 µM (inactive) | 62.8 µM (inactive) | > 100 µM (inactive) | – | > 100 µM (inactive) | > 100 µM (inactive) | > 100 µM (inactive) | > 100 µM (inactive) | > 100 µM (inactive) | > 100 µM (inactive) | > 100 µM (inactive) | – | > 100 µM (inactive)
13 | Nc1ccc2nc(NCc3ccc(F)cc3)cnc2c1 | > 100 | > 100 µM (inactive) | > 100 µM (inactive) | > 100 µM (inactive) | > 100 µM (inactive) | 50.1 µM (inactive) | 29.2 µM (inactive) | > 100 µM (inactive) | > 100 µM (inactive) | 79.3 µM (inactive) | > 100 µM (inactive) | > 100 µM (inactive) | > 100 µM (inactive) | > 100 µM (inactive) | > 100 µM (inactive) | > 100 µM (inactive) | 66.7 µM (inactive) | –
14 | CCN(CC)C(=O)c1cccc2c(OC)ccc(OC)c12 | > 100 | > 100 µM (inactive) | > 100 µM (inactive) | > 100 µM (inactive) | > 100 µM (inactive) | > 100 µM (inactive) | > 100 µM (inactive) | > 100 µM (inactive) | > 100 µM (inactive) | – | > 100 µM (inactive) | > 100 µM (inactive) | > 100 µM (inactive) | > 100 µM (inactive) | > 100 µM (inactive) | > 100 µM (inactive) | > 100 µM (inactive) | > 100 µM (inactive)
15 | O=C(NOC(=O)c1ccc([N+](=O)[O-])cc1)c1ccc(Cl)cc1 | 35.7 | – | 76.7 µM (inactive) | > 100 µM (inactive) | 65.2 µM (inactive) | 20.4 µM (inactive) | 15 µM (inactive) | 36.2 µM (inactive) | > 100 µM (inactive) | > 100 µM (inactive) | > 100 µM (inactive) | 21.4 µM (inactive) | 37.6 µM (inactive) | 65.2 µM (inactive) | – | > 100 µM (inactive) | > 100 µM (inactive) | 39.6 µM (inactive)
16 | O=C(O)/C(=C\c1ccccc1Cl)S(=O)(=O)c1ccccc1 | > 100 | > 100 µM (inactive) | > 100 µM (inactive) | > 100 µM (inactive) | > 100 µM (inactive) | > 100 µM (inactive) | > 100 µM (inactive) | > 100 µM (inactive) | > 100 µM (inactive) | > 100 µM (inactive) | > 100 µM (inactive) | > 100 µM (inactive) | > 100 µM (inactive) | > 100 µM (inactive) | – | > 100 µM (inactive) | > 10 µM (inactive) | > 100 µM (inactive)
17 | C[Si](C)(C)/C(Br)=C\CCN1C(=O)CCC1=O | > 100 | > 100 µM (inactive) | > 100 µM (inactive) | > 100 µM (inactive) | > 100 µM (inactive) | > 100 µM (inactive) | > 100 µM (inactive) | > 100 µM (inactive) | > 100 µM (inactive) | > 100 µM (inactive) | > 100 µM (inactive) | > 100 µM (inactive) | > 100 µM (inactive) | – | > 100 µM (inactive) | > 100 µM (inactive) | > 100 µM (inactive) | > 100 µM (inactive)
18 | CC1(C)C(=NNC(=S)NN)C(C)(C)C1=NNC(=S)NN | – | > 100 µM (inactive) | – | > 100 µM (inactive) | 58.5 µM (inactive) | – | 98.4 µM (inactive) | > 100 µM (inactive) | > 100 µM (inactive) | > 100 µM (inactive) | > 100 µM (inactive) | > 100 µM (inactive) | > 100 µM (inactive) | > 100 µM (inactive) | 4.9 µM (inactive) | > 100 µM (inactive) | – | > 100 µM (inactive)
